≈ marks a conversion by molar mass, not a printed value.
Tests used:
Escherichia coli [1] = experiment: Antibacterial activity against Escherichia coli assessed as bacterial growth inhibition measured after 24 hrs by agar cup diffusion assay; assay type: functional
Pseudomonas aeruginosa [2] = experiment: Antibacterial activity against Pseudomonas aeruginosa assessed as bacterial growth inhibition measured after 24 hrs by agar cup diffusion assay; assay type: functional
Staphylococcus aureus [3] = experiment: Potency index, ratio of ciprofloxacin MIC to test compound MIC for antimicrobial activity against Staphylococcus aureus assessed as bacterial growth inhibition measured after 24 hrs by agar cup diffusion assay; assay type: functional
Staphylococcus aureus [4] = experiment: Antibacterial activity against Staphylococcus aureus assessed as bacterial growth inhibition measured after 24 hrs by agar cup diffusion assay; assay type: functional
Staphylococcus aureus [5] = experiment: Potency index, ratio of ciprofloxacin MIC to test compound MIC for antibacterial activity against Staphylococcus aureus assessed as bacterial growth inhibition by broth microdilution assay; assay type: functional
Staphylococcus aureus [6] = experiment: Antibacterial activity against Staphylococcus aureus assessed as bacterial growth inhibition by broth microdilution assay; assay type: functional
Enterococcus faecalis [7] = experiment: Antibacterial activity against vancomycin resistant Enterococcus faecalis assessed as bacterial growth inhibition measured after 24 hrs by agar dilution assay; assay type: functional
Enterococcus faecalis [8] = experiment: Antibacterial activity against Enterococcus faecalis ATCC 29212 assessed as bacterial growth inhibition measured after 24 hrs by agar dilution assay; assay type: functional
Salmonella typhimurium = experiment: Antibacterial activity against Salmonella typhi assessed as bacterial growth inhibition measured after 24 hrs by agar dilution assay; assay type: functional, Salmonella enterica subsp. enterica serovar […]; conditions: Salmonella enterica
Escherichia coli [9] = experiment: Antibacterial activity against ESBL-producing Escherichia coli assessed as bacterial growth inhibition measured after 24 hrs by agar dilution assay; assay type: functional
Citrobacter = experiment: Antibacterial activity against Citrobacter assessed as bacterial growth inhibition measured after 24 hrs by agar dilution assay; assay type: functional
Enterobacter cloacae = experiment: Antibacterial activity against fosfomycin resistant Enterobacter cloacae assessed as bacterial growth inhibition measured after 24 hrs by agar dilution assay; assay type: functional
Pseudomonas aeruginosa [10] = experiment: Antibacterial activity against imipenem resistant Pseudomonas aeruginosa VIM-2 assessed as bacterial growth inhibition measured after 24 hrs by agar dilution assay; assay type: functional
Serratia marcescens = experiment: Antibacterial activity against Serratia marcescens assessed as bacterial growth inhibition measured after 24 hrs by agar dilution assay; assay type: functional

O=C(/C=C/c1cccc(Cl)c1)c1ccc(NC(=O)N2CCN(c3cc4c(cc3F)c(=O)c(C(=O)O)cn4C3CC3)CC2)cc1
MIC (Escherichia coli [1]): 0.06 µg/mL (≈ 0.0976 µM) | MIC (Pseudomonas aeruginosa [2]): 0.06 µg/mL (≈ 0.0976 µM) | Ratio (Staphylococcus aureus [3]): 54 | MIC (Staphylococcus aureus [4]): 0.06 µg/mL (≈ 0.0976 µM)

O=C(CN1CCN(c2cc3c(cc2F)c(=O)c(C(=O)O)cn3C2CC2)CC1)N/N=C/C=C/c1c(F)cccc1F
Ratio (Staphylococcus aureus [5]): >=4 | MIC (Staphylococcus aureus [6]): ≤ 0.125 µg/mL

CCOP(=O)(OCC)C(Nc1ncc(-c2cc3ccccc3oc2=O)s1)c1cc2cccc(C)c2[nH]c1=O (centres undefined)
MIC (Enterococcus faecalis [7]): 0.25 µg/mL (≈ 0.453 µM) | MIC (Enterococcus faecalis [8]): 0.25 µg/mL (≈ 0.453 µM) | MIC (Salmonella typhimurium): 0.25 µg/mL (≈ 0.453 µM) | MIC (Escherichia coli [9]): 0.25 µg/mL (≈ 0.453 µM) | MIC (Citrobacter): 0.25 µg/mL (≈ 0.453 µM) | MIC (Enterobacter cloacae): 0.25 µg/mL (≈ 0.453 µM) | MIC (Pseudomonas aeruginosa [10]): 0.25 µg/mL (≈ 0.453 µM) | MIC (Serratia marcescens): 0.25 µg/mL (≈ 0.453 µM)
